Data taken from paper PMC7137441, “Synthesis, biological evaluation and molecular docking analysis of vaniline–benzylidenehydrazine hybrids as potent tyrosinase inhibitors” (BMC Chemistry, 2020).
Entries after “also recorded” stand apart in the source; their conditions may differ. Read-outs that look alike come from different tables or passages of the source.

Tests used:
[1] = target: T1, mushroom tyrosinase (Agaricus bisporus, UniProt C7FF04); assay: Mushroom tyrosinase inhibition assay (L-DOPA as substrate); format: biochemical
Description: All test samples were first dissolved in DMSO at 50 mM and diluted to the required concentrations. First, […] of tyrosinase (0.5 mg ml) was mixed with 160 μl of 50 mM phosphate buffer (pH = 6.8) in 96-well microplates and then 10 μl of different concentration of the test sample was added. […] DMSO without test compounds and kojic acid were used as the control and positive control respectively. The tyrosinase activity without inhibitor was defined as 100%. Each concentration was analyzed in three independent experiments run in triplicate.

[2] = target: T1, mushroom tyrosinase; assay: Kinetic study of tyrosinase inhibition (Lineweaver-Burk plot, L-DOPA as substrate); format: biochemical; conditions: for Vm: L-DOPA 0.25-1 mM
Description: The inhibition constants, Ki, and Vm for tyrosinase inhibitors were determined by fitting the kinetic data to a competitive, noncompetitive, or mixed inhibition model by nonlinear regression analysis using GraphPad Prism.
To determine the inhibition kinetics of vaniline-benzylidenehydrazine a series of experiments were performed. Different concentrations of the 4i (0, 10 and 25 µM) was chosen to get a series of straight lines. Pre-incubation and measurement time were the same as discussed in mushroom tyrosinase inhibition assay protocol. The maximal velocity (Vmax) and the Michaelis constant (Km) of the tyrosinase activity were determined by the Line weaver Burk plot at various concentrations of L-DOPA (0.25, 0.5, 0.75 and 1 mM) as a substrate. The inhibition type of the enzyme was assayed by Line weaver Burk plots of inverse of velocities (1/V) versus inverse of substrate concentrations 1/[S] mM.

[3] = L-DOPA as the substrate, mean ± SEM of three to five independent experiments, read-out: IC50 against tyrosinase enzyme

T1 sequence (C7FF04 1-392): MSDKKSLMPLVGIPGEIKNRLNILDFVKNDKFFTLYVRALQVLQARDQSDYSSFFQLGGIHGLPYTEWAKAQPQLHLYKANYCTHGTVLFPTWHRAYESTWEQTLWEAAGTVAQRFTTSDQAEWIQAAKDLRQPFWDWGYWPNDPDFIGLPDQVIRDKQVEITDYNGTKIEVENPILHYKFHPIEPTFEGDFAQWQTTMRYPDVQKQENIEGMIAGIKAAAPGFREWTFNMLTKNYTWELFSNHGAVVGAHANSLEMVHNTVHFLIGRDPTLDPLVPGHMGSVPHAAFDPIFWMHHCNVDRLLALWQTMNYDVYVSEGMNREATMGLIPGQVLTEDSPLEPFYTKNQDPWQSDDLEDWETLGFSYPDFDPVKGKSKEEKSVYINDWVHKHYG

| SMILES | melting point [°C] | IC50 [1, 3] [µM] | IC50 [1] [µM] | Vm ([2]; 4i at 10 µM) [OD/Min] | Vm ([2]; 4i at 25 µM) [OD/Min] | Type of inhibition ([2]; Lineweaver-Burk plot, 4i at 0, 10 and 25 µM) |
| --- | --- | --- | --- | --- | --- | --- |
| COc1cc(C(=O)N/N=C/c2ccc([N+](=O)[O-])cc2)ccc1O [Compound 4f, (E)-4-hydroxy-3-methoxy-Nʹ-(4-nitrobenzylidene)benzohydrazide] | 195 | 29.1 ± 0.89 |  |  |  |  |
| COc1cc(C(=O)N/N=C/c2ccc(O)cc2)ccc1O [Compound 4b, (E)-4-hydroxy-Nʹ-(4-hydroxybenzylidene)-3-methoxybenzohydrazide] | 256 | 15.2 ± 1.34 |  |  |  |  |
| CCOc1cc(/C=N/NC(=O)c2ccc(O)c(OC)c2)ccc1O [Compound 4i, (E)-Nʹ-(3-ethoxy-4-hydroxybenzylidene)-4-hydroxy-3-methoxybenzohydrazide] |  |  | 1.58 | 0.18 | 0.17 | uncompetitive inhibition; also recorded: uncompetitive inhibitor |
| COc1cc(C(=O)N/N=C/c2ccc(Br)cc2)ccc1O [Compound 4e, (E)-Nʹ-(4-bromobenzylidene)-4-hydroxy-3-methoxybenzohydrazide] | 115 | 1.95 ± 2.34 |  |  |  |  |
| COc1cc(C(=O)N/N=C/c2ccc(OC)c(OC)c2)ccc1O [Compound 4d, (E)-Nʹ-(3,4-dimethoxybenzylidene)-4-hydroxy-3-methoxy benzohydrazide] | 231 | 20.9 ± 2.09 |  |  |  |  |
| COc1ccc(/C=N/NC(=O)c2ccc(O)c(OC)c2)cc1 [Compound 4c, (E)-4-hydroxy-3-methoxy-Nʹ-(4-methoxybenzylidene)benzohydrazide] | 110 | 35.6 ± 2.8 |  |  |  |  |
| COc1cc(C(=O)N/N=C/c2ccc(O)cc2O)ccc1O [Compound 4a, (E)-Nʹ-(2,4-dihydroxybenzylidene)-4-hydroxy-3-methoxybenzohydrazide] | 243 | 37.1 ± 1.02 |  |  |  |  |

Now from value to compound, other results behind:

| melting point [°C] | IC50 [1, 3] [µM] | SMILES | IC50 [1] [µM] | Vm ([2]; 4i at 10 µM) [OD/Min] | Vm ([2]; 4i at 25 µM) [OD/Min] | Type of inhibition ([2]; Lineweaver-Burk plot, 4i at 0, 10 and 25 µM) |
| --- | --- | --- | --- | --- | --- | --- |
| 151 | 4.58 | COc1cc(C(=O)N/N=C/c2cc(OC)c(O)c(OC)c2)ccc1O [Compound 4g, (E)-4-hydroxy-Nʹ-(4-hydroxy-3,5-dimethoxybenzylidene)-3-methoxy benzohydrazide] |  |  |  |  |
| 151 | 17 ± 2.03 | COc1cc(C(=O)N/N=C/c2ccccc2[N+](=O)[O-])ccc1O [Compound 4j, (E)-4-hydroxy-3-methoxy-Nʹ-(2-nitrobenzylidene)benzohydrazide] |  |  |  |  |
| 151 | 5.84 ± 1.9 | COc1cc(C(=O)N/N=C/c2cccc([N+](=O)[O-])c2)ccc1O [Compound 4k, (E)-4-hydroxy-3-methoxy-Nʹ-(3-nitrobenzylidene)benzohydrazide] |  |  |  |  |
| 98 | 10 ± 1.6 | COc1ccc(/C=N/NC(=O)c2ccc(O)c(OC)c2)cc1O [Compound 4h, (E)-4-hydroxy-Nʹ-(3-hydroxy-4-methoxybenzylidene)-3-methoxybenzohydrazide] |  |  |  |  |
